Target: T1, ENaC (Homo sapiens, UniProt P37088+P51168+P51170)
T1 construct: endogenous in cells; host or cells: IL-13-treated primary human bronchial epithelial (HBE) cell cultures
T1 sequence (P37088 1-669): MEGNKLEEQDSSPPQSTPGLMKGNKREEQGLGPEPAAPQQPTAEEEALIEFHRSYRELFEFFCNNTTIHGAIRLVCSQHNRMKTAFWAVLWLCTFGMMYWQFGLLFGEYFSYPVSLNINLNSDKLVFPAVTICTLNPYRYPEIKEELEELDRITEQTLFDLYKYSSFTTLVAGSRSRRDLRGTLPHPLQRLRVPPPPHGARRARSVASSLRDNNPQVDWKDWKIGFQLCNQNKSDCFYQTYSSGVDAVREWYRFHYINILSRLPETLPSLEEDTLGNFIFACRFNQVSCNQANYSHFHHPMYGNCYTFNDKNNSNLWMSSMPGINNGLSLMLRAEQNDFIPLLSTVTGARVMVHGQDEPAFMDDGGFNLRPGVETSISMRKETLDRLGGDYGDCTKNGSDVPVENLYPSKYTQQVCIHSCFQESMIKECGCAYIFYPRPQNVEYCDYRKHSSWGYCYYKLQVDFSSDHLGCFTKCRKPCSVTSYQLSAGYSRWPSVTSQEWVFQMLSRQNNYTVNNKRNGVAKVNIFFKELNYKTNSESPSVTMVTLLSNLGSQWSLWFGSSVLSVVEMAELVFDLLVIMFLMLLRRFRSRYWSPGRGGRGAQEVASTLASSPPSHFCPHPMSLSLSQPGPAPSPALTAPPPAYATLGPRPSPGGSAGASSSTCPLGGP
T1 sequence (P51168 1-640): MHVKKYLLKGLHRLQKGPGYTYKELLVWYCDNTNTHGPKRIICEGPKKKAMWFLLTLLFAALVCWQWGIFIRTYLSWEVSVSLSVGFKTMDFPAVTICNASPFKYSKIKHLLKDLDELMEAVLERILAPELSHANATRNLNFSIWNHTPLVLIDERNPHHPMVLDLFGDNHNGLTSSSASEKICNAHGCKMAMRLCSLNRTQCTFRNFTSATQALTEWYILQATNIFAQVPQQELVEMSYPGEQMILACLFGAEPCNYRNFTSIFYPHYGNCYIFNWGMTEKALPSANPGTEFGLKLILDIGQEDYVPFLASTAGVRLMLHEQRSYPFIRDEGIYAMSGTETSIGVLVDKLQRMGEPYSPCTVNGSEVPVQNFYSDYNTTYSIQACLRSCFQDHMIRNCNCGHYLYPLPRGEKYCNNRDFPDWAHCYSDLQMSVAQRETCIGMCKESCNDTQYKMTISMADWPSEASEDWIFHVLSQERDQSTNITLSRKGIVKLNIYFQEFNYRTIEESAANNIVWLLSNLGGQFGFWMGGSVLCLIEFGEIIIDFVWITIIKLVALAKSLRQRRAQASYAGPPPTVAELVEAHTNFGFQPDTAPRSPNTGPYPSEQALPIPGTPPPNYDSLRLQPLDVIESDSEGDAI
T1 sequence (P51170 1-649): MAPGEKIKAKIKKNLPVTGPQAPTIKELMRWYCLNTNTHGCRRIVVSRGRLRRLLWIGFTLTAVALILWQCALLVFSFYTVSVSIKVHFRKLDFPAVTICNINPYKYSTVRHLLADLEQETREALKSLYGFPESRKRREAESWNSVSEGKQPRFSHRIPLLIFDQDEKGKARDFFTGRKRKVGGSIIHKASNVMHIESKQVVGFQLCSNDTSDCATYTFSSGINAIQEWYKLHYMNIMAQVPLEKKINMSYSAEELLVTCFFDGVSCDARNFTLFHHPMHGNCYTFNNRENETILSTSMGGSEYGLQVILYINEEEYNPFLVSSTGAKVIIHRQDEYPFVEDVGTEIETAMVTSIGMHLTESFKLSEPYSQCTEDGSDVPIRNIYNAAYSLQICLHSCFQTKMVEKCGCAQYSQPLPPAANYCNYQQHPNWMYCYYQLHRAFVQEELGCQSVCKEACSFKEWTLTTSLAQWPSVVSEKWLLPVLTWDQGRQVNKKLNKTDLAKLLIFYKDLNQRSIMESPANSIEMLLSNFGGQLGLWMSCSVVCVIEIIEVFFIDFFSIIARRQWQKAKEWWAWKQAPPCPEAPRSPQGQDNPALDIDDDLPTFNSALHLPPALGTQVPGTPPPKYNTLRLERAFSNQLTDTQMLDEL
Assay: Short-circuit current (Isc) analysis in IL-13-treated HBE cells, amiloride response
Format: cell-based
Details: 25 μM, 30 min pre-treatment
Protocol: Further experiments were done with PDSinh-A01 because of its greater inhibition potency for Cl^−/HCO3^− exchange than PDSinh-C01. To investigate PDSinh-A01 specificity, the major ion transport pathways in HBE cells were studied by short-circuit current (Isc) analysis. Cells were treated with IL-13 to increase Ca^2+-activated Cl^− conductance (CaCC) activity. For Isc measurements, cells were sequentially treated with amiloride to inhibit the epithelial sodium channel (ENaC), forskolin to activate the cystic fibrosis transmembrane conductance regulator (CFTR), CFTRinh-172 to inhibit CFTR, and ATP to activate CaCC. In the absence of PDSinh-A01, ion channel modulators produced the anticipated changes in Isc (FIG. 4A).
IL-13-treated HBE cells were cultured on Snapwell clear permeable supports (12 mm diameter, 0.4 μm polyester membrane, Costar, Corning, Corning, N.Y.). Short-circuit current was measured using symmetrical HCO3^−-buffered solutions (in mM: 120 NaCl, 5 KCl, 1 MgCl2, 1 CaCl2, 5 Hepes, 25 NaHCO3; pH 7.4) as described, with ion transport modulators added to both apical and basolateral bathing solutions. Cells were equilibrated with 95% O2/5% CO2 and maintained at 37° C. during data acquisition. Statistical analysis was by Student's t-test.

Cn1nc(COc2cccc(F)c2)c2c1CCN(C(=O)Nc1ccc(Cl)cc1)C2 [PDSinh-A01]
effect on ENaC activity (Isc response): did not affect the activity

Reference: US10702506B2, “Small molecule inhibitors of pendrin ion exchange and pharmaceutical compositions” (THE REGENTS OF THE UNIVERSITY OF CALIFORNIA, priority 2016, dated 2020)
